Test results reported in article PMC9343605, “Structural insights into ligand recognition and selectivity of somatostatin receptors” (Cell Research, 2022).
Blank lines part the entries; values can stand above or below the compound they belong to.

How the values were obtained:
[1] = target: T1, SSTR2 (Homo sapiens, UniProt P30874, Q102A); test: cAMP accumulation assay (agonist-induced inhibition of forskolin-stimulated cAMP), SSTR2, HEK293F; type: cell-based; parameters: expressed in transfected cells; host or cells: HEK293F; conditions: HEK293F; SSTR2 mutant Q102^2.63A; mean ± SEM; read-out: Span;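 also: transiently transfected cells exposed to 2 µM forskolin and a ligand concentration series for 40 min at room temperature in IBMX-containing HBSS, then cAMP quantified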
T1 sequence (P30874 whole entry Q102A): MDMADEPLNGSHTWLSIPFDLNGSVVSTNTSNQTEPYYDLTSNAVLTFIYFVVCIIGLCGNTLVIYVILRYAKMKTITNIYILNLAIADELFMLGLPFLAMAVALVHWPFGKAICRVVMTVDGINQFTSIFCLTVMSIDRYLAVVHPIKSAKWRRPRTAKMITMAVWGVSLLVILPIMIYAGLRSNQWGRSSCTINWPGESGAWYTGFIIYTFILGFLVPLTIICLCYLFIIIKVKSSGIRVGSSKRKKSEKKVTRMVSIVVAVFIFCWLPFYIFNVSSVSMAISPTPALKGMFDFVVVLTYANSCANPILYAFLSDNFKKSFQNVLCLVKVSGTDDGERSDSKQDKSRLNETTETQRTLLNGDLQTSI
Description: (§1) HEK293F cells were transiently transfected with WT or mutant SSTR2/SSTR4 using transfection reagent (PEI MAX 2000, Polysciences) and incubated at 37 °C in 5% CO2. Forty-eight hours after transfection, cells were centrifuged and resuspended in stimulation buffer (Hanks’ balanced salt solution (HBSS) supplemented with 5 mM HEPES, 0.5 mM IBMX and 0.1% (w/v) bovine serum albumin (BSA), pH 7.4) to a density of 200,000 cells/mL and added to 384-well white plates (PerkinElmer, 1000 cells/well). cAMP accumulation was measured by a LANCE Ultra cAMP kit (PerkinElmer) according to the manufacturer’s instructions. In brief, transfected cells were incubated for 40 min in stimulation buffer with 2.5 μL forskolin (SSTR2: 2 μM; SSTR4: 4 μM) and gradient concentration of ligand at RT. The reactions were stopped by addition of lysis buffer containing 5 μL Eu-cAMP tracer and 5 μL ULight-anti-cAMP. Plates were then incubated for 60 min at RT and time-resolved FRET signals were measured at 620 nm and 665 nm by an EnVision multilabel plate reader (PerkinElmer). Data were analyzed in GraphPad PRISM 8 and all values were normalized to the WT for each ligand. All outcomes were repeated at least three times.
(§2) aMutants represent that mutations were introduced separately into the WT receptors and
(§3) transiently expressed in HEK 293F cells.
(§4) bThe EC50 ratio was shown as EC50(mutant)/EC50(WT), indicating the shift between the WT
(§5) and mutant curves, reflecting the effect of the mutations on receptor signaling.
(§6) cData are shown as mean ± S.E.M. from at least three independent experiments
(§7) performed in technical triplicate. One-way ANOVA was performed followed by
(§8) Dunnett’s post-test and compared with WT. The P value was defined as: *P<0.05;
(§9) d The span is defined as the window between the maximal agonists response (Emax) and
(§10) e Sample size; the number of independent experiments performed in technical triplicate.
(§11) f Receptor expression level of HEK 293F cells was determined independently by flow
(§12) cytometry with anti-FLAG antibody and shown as per cent compared to the WT.

[2] = target: T2, SSTR2 (Homo sapiens, UniProt P30874, Y302A); test: as above; type: cell-based; parameters: expressed in transfected cells; host or cells: HEK293F; conditions: HEK293F; SSTR2 mutant Y302^7.43A; mean ± SEM; read-out: Span
T2 sequence (P30874 whole entry Y302A): as the sequence (P30874 whole entry Q102A) above, with A102Q, Y302A counted along it
Description: as §1, §2, §3, §4, §5, §6, §7, §8, §9, §10, §11, §12

[3] = target: T3, SSTR2 (Homo sapiens, UniProt P30874, F294A); test: as above; type: cell-based; parameters: expressed in transfected cells; host or cells: HEK293F; conditions: HEK293F; SSTR2 mutant F294^7.35A; mean ± SEM; read-out: Span
T3 sequence (P30874 whole entry F294A): as the sequence (P30874 whole entry Q102A) above, with A102Q, F294A counted along it
Description: as §1, §2, §3, §4, §5, §6, §7, §8, §9, §10, §11, §12

[4] = target: T4, SSTR2 (Homo sapiens, UniProt P30874); test: as above; type: cell-based; parameters: expressed in transfected cells; host or cells: HEK293F; conditions: HEK293F; WT SSTR2; window between Emax and vehicle; mean ± SEM; read-out: Span
T4 sequence (P30874 whole entry): as the sequence (P30874 whole entry Q102A) above, with A102Q counted along it
Description: as §1, §2, §3, §4, §5, §6, §7, §8, §9, §10, §11, §12

[5] = target: SSTR2 (Homo sapiens, UniProt P30874, T212A); test: as above; type: cell-based; parameters: expressed in transfected cells; host or cells: HEK293F; conditions: HEK293F; SSTR2 mutant T212^5.42A; mean ± SEM; read-out: Span
Sequence of SSTR2 (Homo sapiens, UniProt P30874, T212A) (P30874 whole entry T212A): as the sequence (P30874 whole entry Q102A) above, with A102Q, T212A counted along it
Description: as §1, §2, §3, §4, §5, §6, §7, §8, §9, §10, §11, §12

[6] = target: T5, SSTR2 (Homo sapiens, UniProt P30874, Q126A); test: as above; type: cell-based; parameters: expressed in transfected cells; host or cells: HEK293F; conditions: HEK293F; SSTR2 mutant Q126^3.36A; mean ± SEM; read-out: Span
T5 sequence (P30874 whole entry Q126A): as the sequence (P30874 whole entry Q102A) above, with A102Q, Q126A counted along it
Description: as §1, §2, §3, §4, §5, §6, §7, §8, §9, §10, §11, §12

[7] = target: SSTR2 (Homo sapiens, UniProt P30874, T194A); test: as above; type: cell-based; parameters: expressed in transfected cells; host or cells: HEK293F; conditions: HEK293F; SSTR2 mutant T194^ECL2A; mean ± SEM; read-out: Span
Sequence of SSTR2 (Homo sapiens, UniProt P30874, T194A) (P30874 whole entry T194A): as the sequence (P30874 whole entry Q102A) above, with A102Q, T194A counted along it
Description: as §1, §2, §3, §4, §5, §6, §7, §8, §9, §10, §11, §12

[8] = target: T6, SSTR2 (Homo sapiens, UniProt P30874, F272A); test: as above; type: cell-based; parameters: expressed in transfected cells; host or cells: HEK293F; conditions: HEK293F; SSTR2 mutant F272^6.51A; mean ± SEM; read-out: Span
T6 sequence (P30874 whole entry F272A): as the sequence (P30874 whole entry Q102A) above, with A102Q, F272A counted along it
Description: as §1, §2, §3, §4, §5, §6, §7, §8, §9, §10, §11, §12

[9] = target: T7, SSTR2 (Homo sapiens, UniProt P30874, D122A); test: as above; type: cell-based; parameters: expressed in transfected cells; host or cells: HEK293F; conditions: HEK293F; SSTR2 mutant D122^3.32A; mean ± SEM; read-out: Span
T7 sequence (P30874 whole entry D122A): as the sequence (P30874 whole entry Q102A) above, with A102Q, D122A counted along it
Description: as §1, §2, §3, §4, §5, §6, §7, §8, §9, §10, §11, §12

[10] = target: T8, SSTR2 (Homo sapiens, UniProt P30874, I284A); test: as above; type: cell-based; conditions: HEK293F; SSTR2 mutant I284^ECL3A; mean ± SEM; read-out: Span
T8 construct: expressed in transfected cells; host or cells: HEK293F
T8 sequence (P30874 whole entry I284A): as the sequence (P30874 whole entry Q102A) above, with A102Q, I284A counted along it
Description: as §1, §2, §3, §4, §5, §6, §7, §8, §9, §10, §11, §12

[11] = target: T9, SSTR2 (Homo sapiens, UniProt P30874, F208A); test: as above; type: cell-based; conditions: HEK293F; SSTR2 mutant F208^5.38A; mean ± SEM; read-out: Span
T9 construct: expressed in transfected cells; host or cells: HEK293F
T9 sequence (P30874 whole entry F208A): as the sequence (P30874 whole entry Q102A) above, with A102Q, F208A counted along it
Description: as §1, §2, §3, §4, §5, §6, §7, §8, §9, §10, §11, §12

[12] = target: T10, SSTR2 (Homo sapiens, UniProt P30874, F294N); test: as above; type: cell-based; conditions: HEK293F; SSTR2 mutant F294^7.35N; mean ± SEM; read-out: Span
T10 construct: expressed in transfected cells; host or cells: HEK293F
T10 sequence (P30874 whole entry F294N): as the sequence (P30874 whole entry Q102A) above, with A102Q, F294N counted along it
Description: as §1, §2, §3, §4, §5, §6, §7, §8, §9, §10, §11, §12

[13] = target: T11, SSTR2 (Homo sapiens, UniProt P30874, P286A); test: as above; type: cell-based; conditions: HEK293F; SSTR2 mutant P286^ECL3A; mean ± SEM; read-out: Span
T11 construct: expressed in transfected cells; host or cells: HEK293F
T11 sequence (P30874 whole entry P286A): as the sequence (P30874 whole entry Q102A) above, with A102Q, P286A counted along it
Description: as §1, §2, §3, §4, §5, §6, §7, §8, §9, §10, §11, §12

[14] = target: T12, SSTR2 (Homo sapiens, UniProt P30874, N276A); test: as above; type: cell-based; conditions: HEK293F; SSTR2 mutant N276^6.55A; mean ± SEM; read-out: Span
T12 construct: expressed in transfected cells; host or cells: HEK293F
T12 sequence (P30874 whole entry N276A): as the sequence (P30874 whole entry Q102A) above, with A102Q, N276A counted along it
Description: as §1, §2, §3, §4, §5, §6, §7, §8, §9, §10, §11, §12

[15] = target: T13, SSTR2 (Homo sapiens, UniProt P30874, Y205W); test: as above; type: cell-based; conditions: HEK293F; SSTR2 mutant Y205^5.35W; mean ± SEM; read-out: Span
T13 construct: expressed in transfected cells; host or cells: HEK293F
T13 sequence (P30874 whole entry Y205W): as the sequence (P30874 whole entry Q102A) above, with A102Q, Y205W counted along it
Description: as §1, §2, §3, §4, §5, §6, §7, §8, §9, §10, §11, §12

[16] = target: T14, SSTR2 (Homo sapiens, UniProt P30874, K291A); test: as above; type: cell-based; conditions: HEK293F; SSTR2 mutant K291^7.32A; mean ± SEM; read-out: Span
T14 construct: expressed in transfected cells; host or cells: HEK293F
T14 sequence (P30874 whole entry K291A): as the sequence (P30874 whole entry Q102A) above, with A102Q, K291A counted along it
Description: as §1, §2, §3, §4, §5, §6, §7, §8, §9, §10, §11, §12

[17] = target: T15, SSTR2 (Homo sapiens, UniProt P30874, V298A); test: as above; type: cell-based; conditions: HEK293F; SSTR2 mutant V298^7.39A; mean ± SEM; read-out: Span
T15 construct: expressed in transfected cells; host or cells: HEK293F
T15 sequence (P30874 whole entry V298A): as the sequence (P30874 whole entry Q102A) above, with A102Q, V298A counted along it
Description: as §1, §2, §3, §4, §5, §6, §7, §8, §9, §10, §11, §12

[18] = target: T16, SSTR2 (Homo sapiens, UniProt P30874, S192A); test: as above; type: cell-based; conditions: HEK293F; SSTR2 mutant S192^ECL2A; mean ± SEM; read-out: Span
T16 construct: expressed in transfected cells; host or cells: HEK293F
T16 sequence (P30874 whole entry S192A): as the sequence (P30874 whole entry Q102A) above, with A102Q, S192A counted along it
Description: as §1, §2, §3, §4, §5, §6, §7, §8, §9, §10, §11, §12

[19] = target: T1, SSTR2; test: Whole cell binding assay, SSTR2, competition with 125I-Tyr11-SST14, CHO-K1; conditions: for Emax: CHO-K1, read-out: Span;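 as to all read-outs here: Cell-bound radioactivity in lysed CHO-K1 cells read by scintillation counting, each mutation introduced singly into the WT receptor, at least three independent experiments run in technical triplicate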
Description: (§13) For SSTR2 and SSTR4, CHO-K1 cells were cultured in F12 medium with 10% FBS and seeded at a density of 30,000 cells/well in Isoplate-96 plates (PerkinElmer). Twenty-four hours after transfection with the WT or mutant SSTR2/SSTR4, CHO-K1 cells were washed twice and incubated with blocking buffer (F12 supplemented with 25 mM HEPES and 0.1% (w/v) BSA, pH 7.4) for 2 h at 37 °C. […] Following incubation, cells were washed three times with ice-cold PBS and lysed by 50 μL lysis buffer (PBS supplemented with 20 mM Tris-HCl, 1% Triton X-100, pH 7.4). The radioactivity was subsequently counted (counts/min, CPM) in a scintillation counter (MicroBeta[2] Plate Counter, PerkinElmer) using a scintillation cocktail (OptiPhaseSuperMix, PerkinElmer). Data were analyzed by nonlinear regression using GraphPad PRISM 8.
(§14) aMutants represent that all mutations were introduced separately into the WT receptors
and expressed in CHO K1 cells.
(§15) bThe IC50 ratio was shown as IC50(mutant)/IC50(WT), indicating the shift between the WT
(§16) and mutant curves, reflecting the effect of the mutations on ligand binding.
(§17) cData are shown as mean ± S.E.M. form at least three independent experiments
as §7
(§18) Dunnett’s post-test and compared with WT.
as §9, §10

[20] = target: T2, SSTR2; test: as above; conditions: CHO-K1, read-out: Span
Description: as §13, §14
and expressed in CHO K1 cells.
as §15, §16, §17, §7, §18, §9, §10

[21] = target: T3, SSTR2; test: as above; conditions: for Emax: CHO-K1, read-out: Span
Description: as §13, §14
and expressed in CHO K1 cells.
as §15, §16, §17, §7, §18, §9, §10

[22] = target: T4, SSTR2; test: as above; conditions: for Emax: CHO-K1, read-out: Span
Description: as §13, §14
and expressed in CHO K1 cells.
as §15, §16, §17, §7, §18, §9, §10

[23] = target: T5, SSTR2; test: as above; conditions: for Emax: CHO-K1, read-out: Span
Description: as §13, §14
and expressed in CHO K1 cells.
as §15, §16, §17, §7, §18, §9, §10

[24] = target: SSTR2 (Homo sapiens, UniProt P30874, Y205A); test: as above; conditions: CHO-K1, read-out: Span
Sequence of SSTR2 (Homo sapiens, UniProt P30874, Y205A) (P30874 whole entry Y205A): as the sequence (P30874 whole entry Q102A) above, with A102Q, Y205A counted along it
Description: as §13, §14
and expressed in CHO K1 cells.
as §15, §16, §17, §7, §18, §9, §10

[25] = target: T6, SSTR2; test: as above; conditions: for Emax: CHO-K1, read-out: Span
Description: as §13, §14
and expressed in CHO K1 cells.
as §15, §16, §17, §7, §18, §9, §10

[26] = target: SSTR2 (Homo sapiens, UniProt P30874, F275A); test: as above; conditions: for Emax: CHO-K1, read-out: Span
Sequence of SSTR2 (Homo sapiens, UniProt P30874, F275A) (P30874 whole entry F275A): as the sequence (P30874 whole entry Q102A) above, with A102Q, F275A counted along it
Description: as §13, §14
and expressed in CHO K1 cells.
as §15, §16, §17, §7, §18, §9, §10

[27] = target: T7, SSTR2; test: as above; conditions: CHO-K1, read-out: Span
Description: as §13, §14
and expressed in CHO K1 cells.
as §15, §16, §17, §7, §18, §9, §10

[28] = target: SSTR2 (Homo sapiens, UniProt P30874, D295A); test: as above
Sequence of SSTR2 (Homo sapiens, UniProt P30874, D295A) (P30874 whole entry D295A): as the sequence (P30874 whole entry Q102A) above, with A102Q, D295A counted along it
Description: as §13, §14
and expressed in CHO K1 cells.
as §15, §16, §17, §7, §18, §9, §10

[29] = target: SSTR2 (Homo sapiens, UniProt P30874, S42A); test: as above
Sequence of SSTR2 (Homo sapiens, UniProt P30874, S42A) (P30874 whole entry S42A): as the sequence (P30874 whole entry Q102A) above, with S42A, A102Q counted along it
Description: as §13, §14
and expressed in CHO K1 cells.
as §15, §16, §17, §7, §18, §9, §10

[30] = target: SSTR2 (Homo sapiens, UniProt P30874, N43A); test: as above
Sequence of SSTR2 (Homo sapiens, UniProt P30874, N43A) (P30874 whole entry N43A): as the sequence (P30874 whole entry Q102A) above, with N43A, A102Q counted along it
Description: as §13, §14
and expressed in CHO K1 cells.
as §15, §16, §17, §7, §18, §9, §10

- Emax [1]: 30 ± 5%
- Emax [2]: 147 ± 12%
- Emax [3]: 123 ± 10%
- Emax [4]: 100 ± 4%
- Emax [5]: 90 ± 10%
- Emax [6]: 101 ± 7%
- Emax [7]: 125 ± 7%
- Emax [8]: 134 ± 17%
- Emax [9]: 16 ± 4%
- Emax [10]: 58 ± 8%
- Emax [11]: 128 ± 8%
- Emax [12]: 47 ± 9%
- Emax [13]: 72 ± 8%
- Emax [14]: 75 ± 9%
- Emax [15]: 97 ± 10%
- Emax [16]: 103 ± 8%
- Emax [17]: 127 ± 4%
- Emax [18]: 146 ± 13%
- Emax [19]: 27 ± 4%
- Emax [20]: 18 ± 7%
- Emax [21]: 28 ± 9%
- Emax [22]: 100 ± 7%
- Emax [23]: 16 ± 8%
- Emax [24]: 60 ± 5%
- Emax [25]: 26 ± 6%
- Emax [26]: 51 ± 4%
- Emax [27]: 16 ± 7%
SMILES: C[C@@H](O)[C@@H]1NC(=O)[C@H](CCCCN)NC(=O)[C@@H](Cc2c[nH]c3ccccc23)NC(=O)[C@H](Cc2ccccc2)NC(=O)[C@@H](NC(=O)[C@H](N)Cc2ccccc2)CSSC[C@@H](C(=O)N[C@H](CO)[C@@H](C)O)NC1=O [Octreotide]

SMILES: CC(=O)N[C@@H](Cc1ccc([N+](=O)[O-])cc1)C(=O)N[C@@H]1CSSC[C@@H](C(=O)N[C@H](Cc2ccc(O)cc2)C(N)=O)NC(=O)[C@H]([C@@H](C)O)NC(=O)[C@H](CCCCN)NC(=O)[C@@H](Cc2c[nH]c3ccccc23)NC(=O)[C@H](Cc2ccc(O)cc2)NC1=O [CYN 154806]
- IC50 [19]: 20.4 nM
- Emax [19]: 24 ± 5%
- Emax [20]: 15 ± 5%
- IC50 [21]: 21.9 nM
- Emax [21]: 36 ± 6%
- IC50 [22]: 4.37 nM
- Emax [22]: 100 ± 6%
- IC50 [28]: 3.55 nM
- Emax ([28]; CHO-K1, read-out: Span): 62 ± 6%
- IC50 [23]: 135 nM
- Emax [23]: 25 ± 4%
- IC50 [25]: 23.4 nM
- Emax [25]: 21 ± 6%
- IC50 [26]: 21.9 nM
- Emax [26]: 69 ± 7%
- IC50 [29]: 2.75 nM
- Emax ([29]; CHO-K1, read-out: Span): 145 ± 9%
- Emax [27]: 20 ± 2%
- IC50 [30]: 8.13 nM
- Emax ([30]; CHO-K1, read-out: Span): 96 ± 8%
